Assay results reported in patent publication US8956999B2, “Herbicides” (Syngenta Limited, priority 2007, dated 2015).

Columns and labels:
Type in all cases: in vivo
[1] = system: Digitaria sanguinalis (DIGSA); assay: Example A post-emergence herbicidal test, glasshouse; settings: rate 125 g/ha, evaluated 14 or 15 days later, 100=total damage to plant, 0=no damage to plant
Procedure: (§1) Seeds of a variety of test species were sown in standard soil in pots. After cultivation for one day (pre-emergence) or after 10 days cultivation (post-emergence) under controlled conditions in a glasshouse, the plants were sprayed with an aqueous spray solution derived from the formulation of the technical active ingredient in 0.6 ml acetone and 45 ml formulation solution containing 10.6% Emulsogen EL (Registry number 61791-12-6), 42.2% N-methylpyrrolidone, 42.2% dipropylene glycol monomethyl ether (Registry number 34590-94-8) and 0.2% X-77 (Registry number 11097-66-8). The test plants were then grown in a greenhouse under optimum conditions until, 14 or 15 days later for post-emergence and 20 days for pre-emergence, the test was evaluated (100=total damage to plant; 0=no damage to plant). Test Plants: Alopecurus myosuroides (ALOMY), Avena fatua (AVEFA), Lolium perenne (LOLPE), Setaria faberi (SETFA), Digitaria sanguinalis (DIGSA), Echinochloa crus-galli (ECHCG)

Lolium perenne (LOLPE) [2] = assay: as above; settings: rate 125 g/ha, evaluated 14 or 15 days later, 100=total damage to plant, 0=no damage to plant
Procedure: as §1

[3] = system: Alopecurus myosuroides (ALOMY); assay: as above; settings: rate 125 g/ha, evaluated 14 or 15 days later, 100=total damage to plant, 0=no damage to plant
Procedure: as §1

[4] = system: Echinochloa crus-galli (ECHCG); assay: as above; settings: rate 125 g/ha, evaluated 14 or 15 days later, 100=total damage to plant, 0=no damage to plant
Procedure: as §1

Setaria faberi (SETFA) [5] = assay: as above; settings: rate 125 g/ha, evaluated 14 or 15 days later, 100=total damage to plant, 0=no damage to plant
Procedure: as §1

Avena fatua (AVEFA) [6] = assay: as above; settings: rate 125 g/ha, evaluated 14 or 15 days later, 100=total damage to plant, 0=no damage to plant
Procedure: as §1

[7] = system: Digitaria sanguinalis (DIGSA); assay: Example A pre-emergence herbicidal test, glasshouse; settings: rate 250 g/ha, evaluated after 20 days, 100=total damage to plant, 0=no damage to plant
Procedure: as §1

Lolium perenne (LOLPE) [8] = assay: as above; settings: rate 250 g/ha, evaluated after 20 days, 100=total damage to plant, 0=no damage to plant
Procedure: as §1

[9] = system: Alopecurus myosuroides (ALOMY); assay: as above; settings: rate 250 g/ha, evaluated after 20 days, 100=total damage to plant, 0=no damage to plant
Procedure: as §1

[10] = system: Echinochloa crus-galli (ECHCG); assay: as above; settings: rate 250 g/ha, evaluated after 20 days, 100=total damage to plant, 0=no damage to plant
Procedure: as §1

Setaria faberi (SETFA) [11] = assay: as above; settings: rate 250 g/ha, evaluated after 20 days, 100=total damage to plant, 0=no damage to plant
Procedure: as §1

Avena fatua (AVEFA) [12] = assay: as above; settings: rate 250 g/ha, evaluated after 20 days, 100=total damage to plant, 0=no damage to plant
Procedure: as §1

[13] = system: Alopecurus myosuroides (ALOMY); assay: Example B pre-emergence herbicidal test, glasshouse; settings: 312 h, rate 1000 g/ha, evaluated after 13 days, 100=total damage to plant, 0=no damage to plant
Summary of the method: (§2)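 Seeds sown in standard soil; sprayed 1 day after sowing (pre-emergence) or after 8 days' growth (post-emergence) with aqueous spray from formulation in acetone/water 50:50 with 0.5% Tween 20. Glasshouse 24/16 °C day/night, 14 h light, 65% humidity; damage scored after 13 days (0 none, 100 total).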

[14] = system: Echinochloa crus-galli (ECHCG); assay: as above; settings: rate 1000 g/ha, evaluated after 13 days, 100=total damage to plant, 0=no damage to plant
Summary of the method: as §2

[15] = system: Amaranthus retoflexus (AMARE); assay: as above; settings: Amaranthus retroflexus, 312 h, rate 1000 g/ha, evaluated after 13 days, 100=total damage to plant, 0=no damage to plant
Summary of the method: as §2

Solanum nigrum (SOLNI) [16] = assay: as above; settings: rate 1000 g/ha, evaluated after 13 days, 100=total damage to plant, 0=no damage to plant
Summary of the method: as §2

Setaria faberi (SETFA) [17] = assay: as above; settings: rate 1000 g/ha, evaluated after 13 days, 100=total damage to plant, 0=no damage to plant
Summary of the method: as §2

Avena fatua (AVEFA) [18] = assay: as above; settings: 312 h, rate 1000 g/ha, evaluated after 13 days, 100=total damage to plant, 0=no damage to plant
Summary of the method: as §2

[19] = system: Alopecurus myosuroides (ALOMY); assay: Example B post-emergence herbicidal test, glasshouse; settings: 312 h, rate 1000 g/ha, evaluated after 13 days, read-out: Post-Emergence Activity ALOMY (100=total damage to plant; 0=no damage to plant)
Summary of the method: as §2

[20] = system: Echinochloa crus-galli (ECHCG); assay: as above; settings: 312 h, rate 1000 g/ha, evaluated after 13 days, read-out: Post-Emergence Activity ECHCG (100=total damage to plant; 0=no damage to plant)
Summary of the method: as §2

[21] = system: Amaranthus retoflexus (AMARE); assay: as above; settings: Amaranthus retroflexus, 312 h, rate 1000 g/ha, evaluated after 13 days, read-out: Post-Emergence Activity AMARE (100=total damage to plant; 0=no damage to plant)
Summary of the method: as §2

Solanum nigrum (SOLNI) [22] = assay: as above; settings: 312 h, rate 1000 g/ha, evaluated after 13 days, read-out: Post-Emergence Activity SOLNI (100=total damage to plant; 0=no damage to plant)
Summary of the method: as §2

Setaria faberi (SETFA) [23] = assay: as above; settings: 312 h, rate 1000 g/ha, evaluated after 13 days, read-out: Post-Emergence Activity SETFA (100=total damage to plant; 0=no damage to plant)
Summary of the method: as §2

Avena fatua (AVEFA) [24] = assay: as above; settings: 312 h, rate 1000 g/ha, evaluated after 13 days, read-out: Post-Emergence Activity AVEFA (100=total damage to plant; 0=no damage to plant)
Summary of the method: as §2

## Cc1[se]c(-c2ccc(Cl)cc2)nc1C1C(=O)C(C)(C)OC(C)(C)C1=O [Compound T16, 5-[2-(4-chlorophenyl)-5-methylselenazol-4-yl]-2,2,6,6-tetramethylpyran-3,5-dione]
[1]
  Post-Emergence Activity DIGSA: 90
Lolium perenne (LOLPE) [2]
  Post-Emergence Activity LOLPE: 60
[3]
  Post-Emergence Activity ALOMY: 70
[4]
  Post-Emergence Activity ECHCG: 100
Setaria faberi (SETFA) [5]
  Post-Emergence Activity SETFA: 90
Avena fatua (AVEFA) [6]
  Post-Emergence Activity AVEFA: 70
[7]
  Pre-Emergence Activity DIGSA: 100
Lolium perenne (LOLPE) [8]
  Pre-Emergence Activity LOLPE: 100
[9]
  Pre-Emergence Activity ALOMY: 90
[10]
  Pre-Emergence Activity ECHCG: 60
Setaria faberi (SETFA) [11]
  Pre-Emergence Activity SETFA: 0
Avena fatua (AVEFA) [12]
  Pre-Emergence Activity AVEFA: 50

## Cc1sc(-c2ccc(Cl)cc2)nc1C1C(=O)C(C)(C)OC(C)(C)C1=O [Compound T13]
[1]
  Post-Emergence Activity DIGSA: 100
Lolium perenne (LOLPE) [2]
  Post-Emergence Activity LOLPE: 70
[3]
  Post-Emergence Activity ALOMY: 90
[4]
  Post-Emergence Activity ECHCG: 100
Setaria faberi (SETFA) [5]
  Post-Emergence Activity SETFA: 100
Avena fatua (AVEFA) [6]
  Post-Emergence Activity AVEFA: 80
[7]
  Pre-Emergence Activity DIGSA: 100
Lolium perenne (LOLPE) [8]
  Pre-Emergence Activity LOLPE: 100
[9]
  Pre-Emergence Activity ALOMY: 100
[10]
  Pre-Emergence Activity ECHCG: 100
Setaria faberi (SETFA) [11]
  Pre-Emergence Activity SETFA: 100
Avena fatua (AVEFA) [12]
  Pre-Emergence Activity AVEFA: 50

## CCc1sc(-c2ccc(Cl)cc2)nc1C1C(=O)C(C)(C)OC(C)(C)C1=O [Compound T11, 4-[2-(4-chlorophenyl)-5-ethylthiazol-4-yl]-2,2,6,6-tetramethylpyran-3,5-dione]
[1]
  Post-Emergence Activity DIGSA: 100
Lolium perenne (LOLPE) [2]
  Post-Emergence Activity LOLPE: 60
[3]
  Post-Emergence Activity ALOMY: 90
[4]
  Post-Emergence Activity ECHCG: 100
Setaria faberi (SETFA) [5]
  Post-Emergence Activity SETFA: 100
Avena fatua (AVEFA) [6]
  Post-Emergence Activity AVEFA: 80
[7]
  Pre-Emergence Activity DIGSA: 100
Lolium perenne (LOLPE) [8]
  Pre-Emergence Activity LOLPE: 100
[9]
  Pre-Emergence Activity ALOMY: 100
[10]
  Pre-Emergence Activity ECHCG: 100
Setaria faberi (SETFA) [11]
  Pre-Emergence Activity SETFA: 100
Avena fatua (AVEFA) [12]
  Pre-Emergence Activity AVEFA: 100

## CCc1sc(-c2ccc(Cl)cc2)nc1C1=C(OC(=O)C(C)(C)C)C(C)(C)OC(C)(C)C1=O [Compound P2, 2,2-dimethylpropionic acid 4-[2-(4-chlorophenyl)-5-ethylthiazol-4-yl]-2,2,6,6-tetramethyl-5-oxo-5,6-dihydro-2H-pyran-3-yl ester]
[13]
  pest or weed control at 1000 g/ha: 60%
[14]
  Pre-Emergence Activity ECHCG: 50
[15]
  pest or weed control at 1000 g/ha: 80%
Solanum nigrum (SOLNI) [16]
  Pre-Emergence Activity SOLNI: 0
Setaria faberi (SETFA) [17]
  Pre-Emergence Activity SETFA: 80
Avena fatua (AVEFA) [18]
  pest or weed control at 1000 g/ha: 30%
[19]
  pest or weed control at 1000 g/ha: 90%
[20]
  pest or weed control at 1000 g/ha: 100%
[21]
  pest or weed control at 1000 g/ha: 0%
Solanum nigrum (SOLNI) [22]
  pest or weed control at 1000 g/ha: 0%
Setaria faberi (SETFA) [23]
  pest or weed control at 1000 g/ha: 100%
Avena fatua (AVEFA) [24]
  pest or weed control at 1000 g/ha: 90%

## Cc1sc(-c2ccc(Cl)cc2)cc1C1C(=O)C(C)(C)OC(C)(C)C1=O [Compound T12]
[1]
  Post-Emergence Activity DIGSA: 90
Lolium perenne (LOLPE) [2]
  Post-Emergence Activity LOLPE: 70
[3]
  Post-Emergence Activity ALOMY: 80
[4]
  Post-Emergence Activity ECHCG: 100
Setaria faberi (SETFA) [5]
  Post-Emergence Activity SETFA: 80
Avena fatua (AVEFA) [6]
  Post-Emergence Activity AVEFA: 70
[7]
  Pre-Emergence Activity DIGSA: 20
Lolium perenne (LOLPE) [8]
  Pre-Emergence Activity LOLPE: 0
[9]
  Pre-Emergence Activity ALOMY: 30
[10]
  Pre-Emergence Activity ECHCG: 40
Setaria faberi (SETFA) [11]
  Pre-Emergence Activity SETFA: 0
Avena fatua (AVEFA) [12]
  Pre-Emergence Activity AVEFA: 0

## CCc1sc(-c2ccc(Cl)cc2)nc1C1C(=O)C(C)(C)C(=O)C(C)(C)C1=O [Compound T6]
[1]
  Post-Emergence Activity DIGSA: 70
Lolium perenne (LOLPE) [2]
  Post-Emergence Activity LOLPE: 30
[3]
  Post-Emergence Activity ALOMY: 70
[4]
  Post-Emergence Activity ECHCG: 70
Setaria faberi (SETFA) [5]
  Post-Emergence Activity SETFA: 70
Avena fatua (AVEFA) [6]
  Post-Emergence Activity AVEFA: 60
[19]
  pest or weed control at 1000 g/ha: 90%
[20]
  pest or weed control at 1000 g/ha: 90%
[21]
  pest or weed control at 1000 g/ha: 0%
Solanum nigrum (SOLNI) [22]
  pest or weed control at 1000 g/ha: 0%
Setaria faberi (SETFA) [23]
  pest or weed control at 1000 g/ha: 100%
Avena fatua (AVEFA) [24]
  pest or weed control at 1000 g/ha: 90%
[7]
  Pre-Emergence Activity DIGSA: 70
Lolium perenne (LOLPE) [8]
  Pre-Emergence Activity LOLPE: 80
[9]
  Pre-Emergence Activity ALOMY: 50
[10]
  Pre-Emergence Activity ECHCG: 50
Setaria faberi (SETFA) [11]
  Pre-Emergence Activity SETFA: 60
Avena fatua (AVEFA) [12]
  Pre-Emergence Activity AVEFA: 20

## Cc1sc(-c2cc(Cl)ccc2Cl)nc1C1C(=O)C(C)(C)C(=O)C(C)(C)C1=O [Compound T10, 6-[2-(2,5-dichlorophenyl)-5-methylthiazol-4-yl]-2,2,4,4-tetramethyl-cyclohexane-1,3,5-trione]
[13]
  pest or weed control at 1000 g/ha: 30%
[14]
  Pre-Emergence Activity ECHCG: 0
[15]
  pest or weed control at 1000 g/ha: 0%
Solanum nigrum (SOLNI) [16]
  Pre-Emergence Activity SOLNI: 0
Setaria faberi (SETFA) [17]
  Pre-Emergence Activity SETFA: 0
Avena fatua (AVEFA) [18]
  pest or weed control at 1000 g/ha: 20%
[19]
  pest or weed control at 1000 g/ha: 40%
[20]
  pest or weed control at 1000 g/ha: 70%
[21]
  pest or weed control at 1000 g/ha: 0%
Solanum nigrum (SOLNI) [22]
  pest or weed control at 1000 g/ha: 20%
Setaria faberi (SETFA) [23]
  pest or weed control at 1000 g/ha: 80%
Avena fatua (AVEFA) [24]
  pest or weed control at 1000 g/ha: 0%
